Here are results for ten compounds from patent publication US8785457B2 (Cellzome Limited, priority 2009, dated 2014).

Bounds are passed on as bounds.

Test [1] has as its target T1, PI3 Kbeta (PI3 Kb) (Homo sapiens, UniProt P42338).
T1 construct: endogenous in cells; host or cells: cell lysate
The test is described as follows: kinobeads assay, PI3Kbeta. The class given is binding. Conditions: kinobeads assay, Table 6; read-out: Inhibition values (IC50) PI3Kb. The essentials:
(§1)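 Competitive pull-down in cell lysate: compound (various conc.) + phenylmorpholin-chromen affinity beads, incubate, separate beads, elute. Multiplexed immunodetection of bound kinases; dose-response fit → IC50.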

Test [2] has as its target T2, PI3 Kgamma (PI3 Kg) (Homo sapiens, UniProt P48736).
T2 construct: endogenous in cells; host or cells: cell lysate
The test is described as follows: kinobeads assay, PI3Kgamma. Conditions: kinobeads assay, Table 6; read-out: Inhibition values (IC50) PI3Kg. The class given is binding. The essentials: as §1

Test [3] deals with S6RP serine-240/244 phosphorylation. The test is described as follows: In vitro Phospho-S6 cellular assay (pS6RP S240/244) in HEK293T/17 cells. The class given is cell-based. The note with it: Homo sapiens, 2 hours, read-out: pS6 IC50. The essentials:
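Compounds were tested at eight concentrations on adhered HEK293T/17 cells for 2 h at 37 °C (2% FCS, 0.1% DMSO), at 80,000 cells/well for pAkt S473 and 40,000 for pS6RP S240/244. Lysates were captured on phospho-specific antibody MSD plates with Sulfo-Tag detection. Values came from nonlinear variable-slope regression.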

T1 sequence (P42338 whole entry): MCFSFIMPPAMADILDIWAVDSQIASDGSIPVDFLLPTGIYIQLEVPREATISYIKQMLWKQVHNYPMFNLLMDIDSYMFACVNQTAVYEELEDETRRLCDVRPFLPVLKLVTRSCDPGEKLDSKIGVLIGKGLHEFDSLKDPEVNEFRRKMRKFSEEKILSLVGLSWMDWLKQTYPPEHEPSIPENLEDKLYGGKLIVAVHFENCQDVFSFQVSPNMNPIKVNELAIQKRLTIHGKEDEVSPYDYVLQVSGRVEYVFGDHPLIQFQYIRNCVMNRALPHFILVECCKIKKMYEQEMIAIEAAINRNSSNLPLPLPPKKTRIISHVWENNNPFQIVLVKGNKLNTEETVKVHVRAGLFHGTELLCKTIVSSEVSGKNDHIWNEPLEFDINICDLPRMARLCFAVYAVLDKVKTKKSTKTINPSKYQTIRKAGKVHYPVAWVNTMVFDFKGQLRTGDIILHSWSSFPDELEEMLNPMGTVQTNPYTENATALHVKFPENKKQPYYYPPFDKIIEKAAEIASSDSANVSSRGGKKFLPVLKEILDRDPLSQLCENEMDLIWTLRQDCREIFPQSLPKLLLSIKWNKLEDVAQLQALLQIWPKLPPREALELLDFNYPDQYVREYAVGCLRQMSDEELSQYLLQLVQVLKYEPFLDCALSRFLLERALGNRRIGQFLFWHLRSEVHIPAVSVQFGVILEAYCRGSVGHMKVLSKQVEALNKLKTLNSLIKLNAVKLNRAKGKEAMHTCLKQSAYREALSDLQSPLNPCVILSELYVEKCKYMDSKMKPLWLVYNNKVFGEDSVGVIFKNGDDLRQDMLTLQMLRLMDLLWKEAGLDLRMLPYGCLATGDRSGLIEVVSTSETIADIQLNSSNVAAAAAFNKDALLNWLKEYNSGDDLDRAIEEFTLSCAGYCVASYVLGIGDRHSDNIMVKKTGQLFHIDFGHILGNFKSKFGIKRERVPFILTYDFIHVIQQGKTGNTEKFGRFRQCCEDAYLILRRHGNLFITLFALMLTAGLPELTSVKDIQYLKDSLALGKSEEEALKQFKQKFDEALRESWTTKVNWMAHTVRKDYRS
T1 sequence (P27986 whole entry partner): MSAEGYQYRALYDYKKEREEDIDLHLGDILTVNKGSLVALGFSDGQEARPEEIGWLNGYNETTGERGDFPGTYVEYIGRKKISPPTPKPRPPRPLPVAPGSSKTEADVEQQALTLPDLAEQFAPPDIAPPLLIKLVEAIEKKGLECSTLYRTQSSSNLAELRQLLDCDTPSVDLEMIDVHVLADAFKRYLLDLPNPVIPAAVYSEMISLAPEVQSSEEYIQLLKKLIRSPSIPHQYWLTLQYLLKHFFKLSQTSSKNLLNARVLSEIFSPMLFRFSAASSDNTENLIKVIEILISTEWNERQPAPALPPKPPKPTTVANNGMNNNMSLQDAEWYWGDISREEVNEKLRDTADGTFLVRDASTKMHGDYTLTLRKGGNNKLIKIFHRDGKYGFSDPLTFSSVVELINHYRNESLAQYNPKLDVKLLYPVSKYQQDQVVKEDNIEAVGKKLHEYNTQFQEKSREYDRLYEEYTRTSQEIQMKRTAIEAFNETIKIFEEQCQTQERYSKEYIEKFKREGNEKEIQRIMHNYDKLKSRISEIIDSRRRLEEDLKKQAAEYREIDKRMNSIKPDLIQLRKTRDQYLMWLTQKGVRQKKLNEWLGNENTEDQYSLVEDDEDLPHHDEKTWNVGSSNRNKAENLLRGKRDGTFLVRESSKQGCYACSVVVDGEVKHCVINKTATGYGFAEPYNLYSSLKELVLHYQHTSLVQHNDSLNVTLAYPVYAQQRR
T2 sequence (P48736 whole entry): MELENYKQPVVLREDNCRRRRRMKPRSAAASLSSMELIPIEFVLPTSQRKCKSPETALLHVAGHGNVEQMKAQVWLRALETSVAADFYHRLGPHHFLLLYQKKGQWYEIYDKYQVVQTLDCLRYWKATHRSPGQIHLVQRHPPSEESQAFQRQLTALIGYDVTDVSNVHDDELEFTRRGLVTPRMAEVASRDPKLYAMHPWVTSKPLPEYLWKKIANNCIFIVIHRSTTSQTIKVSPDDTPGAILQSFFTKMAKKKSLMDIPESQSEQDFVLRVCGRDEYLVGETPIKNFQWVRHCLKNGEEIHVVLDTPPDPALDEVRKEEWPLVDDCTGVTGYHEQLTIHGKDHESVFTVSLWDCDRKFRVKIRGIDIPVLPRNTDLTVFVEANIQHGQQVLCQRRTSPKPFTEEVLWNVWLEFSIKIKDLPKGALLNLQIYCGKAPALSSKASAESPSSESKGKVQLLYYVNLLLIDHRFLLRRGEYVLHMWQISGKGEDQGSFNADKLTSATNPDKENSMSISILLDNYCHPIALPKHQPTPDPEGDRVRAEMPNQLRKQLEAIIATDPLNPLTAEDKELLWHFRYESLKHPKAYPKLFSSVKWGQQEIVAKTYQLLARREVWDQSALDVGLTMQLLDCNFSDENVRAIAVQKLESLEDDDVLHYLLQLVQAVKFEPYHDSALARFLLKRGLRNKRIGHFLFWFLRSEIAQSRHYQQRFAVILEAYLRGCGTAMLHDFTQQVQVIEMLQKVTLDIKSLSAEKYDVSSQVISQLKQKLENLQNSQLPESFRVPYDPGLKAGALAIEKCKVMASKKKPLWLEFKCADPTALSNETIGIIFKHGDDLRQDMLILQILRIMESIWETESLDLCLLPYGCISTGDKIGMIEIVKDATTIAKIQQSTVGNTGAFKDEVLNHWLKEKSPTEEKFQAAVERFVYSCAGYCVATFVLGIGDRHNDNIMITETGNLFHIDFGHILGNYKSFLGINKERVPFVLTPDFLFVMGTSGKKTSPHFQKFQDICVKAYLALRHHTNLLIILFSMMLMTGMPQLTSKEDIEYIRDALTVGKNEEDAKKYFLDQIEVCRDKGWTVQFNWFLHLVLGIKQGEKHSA

With `CCNC(=O)Nc1ccc(-c2nc3c(c(N4CCOC[C@@H]4C)n2)CN(CC(C)C)C3)cc1` [Example 66, (S)-1-ethyl-3-(4-(6-isobutyl-4-(3-methylmorpholino)-6,7-dihydro-5H-pyrrolo[3,4-d]pyrimidin-2-yl)phenyl)urea], the values for the IC50 in test [1], in test [2] and in test [3] were above 10000 nM, above 10000 nM and 74 nM, respectively.
Regarding `CCNC(=O)Nc1ccc(-c2nc3c(c(N4CCOC[C@@H]4C)n2)CN(CC(C)(C)C)C3)cc1` [Example 67, (S)-1-ethyl-3-(4-(4-(3-methylmorpholino)-6-neopentyl-6,7-dihydro-5H-pyrrolo[3,4-d]pyrimidin-2-yl)phenyl)urea], the IC50 in test [1] is above 10000 nM; in test [2], above 10000 nM; in test [3], 143 nM.
For `CCNC(=O)Nc1ccc(-c2nc3c(c(N4CCOC[C@@H]4C)n2)CN(CC(F)(F)F)C3)cc1` [Example 68, (S)-1-ethyl-3-(4-(4-(3-methylmorpholino)-6-(2,2,2-trifluoroethyl)-6,7-dihydro-5H-pyrrolo[3,4-d]pyrimidin-2-yl)phenyl)urea], the 50% inhibitory concentration (IC50) was above 10000 nM in test [1], above 10000 nM in test [2] and 243 nM in test [3].
In the case of `CCNC(=O)Nc1ccc(-c2nc3c(c(N4CCOCC4)n2)CN(C)C3)cc1` [Example 69, 1-Ethyl-3-(4-(6-methyl-4-morpholino-6,7-dihydro-5H-pyrrolo[3,4-d]pyrimidin-2-yl)phenyl)urea], the figures for the IC50 in test [1], in test [2] and in test [3] were 1000 to 10000 nM, above 10000 nM and 208 nM, respectively.
On to `CCNC(=O)Nc1ccc(-c2nc3c(c(N4CCOCC4)n2)CN(C(=O)OCC)C3)cc1` [Example 70, Ethyl 2-(4-(3-ethylureido)phenyl)-4-morpholino-5H-pyrrolo[3,4-d]pyrimidine-6(7H)-carboxylate], for which the IC50 in test [1] is above 10000 nM; in test [2], above 10000 nM; in test [3] it was 133 nM.
With `C[C@H]1COCCN1c1nc(-c2ccc(NC(N)=O)cc2)nc2c1CN(C)C2` [Example 71, (S)-1-(4-(6-methyl-4-(3-methylmorpholino)-6,7-dihydro-5H-pyrrolo[3,4-d]pyrimidin-2-yl)phenyl)urea], the IC50 in test [1] is 1000 to 10000 nM; in test [2], 1000 to 10000 nM; in test [3], 690 nM.
`Cc1cc(NC(=O)Nc2ccc(-c3nc4c(c(N5CCOC[C@@H]5C)n3)CN(C)C4)cc2)no1` [Example 72, (S)-1-(4-(6-methyl-4-(3-methylmorpholino)-6,7-dihydro-5H-pyrrolo[3,4-d]pyrimidin-2-yl)phenyl)-3-(5-methylisoxazol-3-yl)urea]: the IC50 in test [1] is above 10000 nM; in test [2], above 10000 nM; in test [3] it was 129 nM.
On to `C[C@H]1COCCN1c1nc(-c2ccc(NC(=O)NCCO)cc2)nc2c1CN(C)C2` [Example 73, (S)-1-(2-hydroxyethyl)-3-(4-(6-methyl-4-(3-methylmorpholino)-6,7-dihydro-5H-pyrrolo[3,4-d]pyrimidin-2-yl)phenyl)urea], for which the figures for the IC50 in test [1], in test [2] and in test [3] were 1000 to 10000 nM, above 10000 nM and 425 nM, respectively.
In the case of `CCNC(=O)Nc1ccc(-c2nc3c(c(N4CCOC[C@@H]4C)n2)CN(C(C)C)C3)cc1` [Example 74, (S)-1-ethyl-3-(4-(6-isopropyl-4-(3-methylmorpholino)-6,7-dihydro-5H-pyrrolo[3,4-d]pyrimidin-2-yl)phenyl)urea], the IC50 in test [1] is above 10000 nM; in test [2], above 10000 nM; in test [3] it was 110 nM.
`CCNC(=O)Nc1ccc(-c2nc3c(c(N4CCOC[C@@H]4C)n2)CCN(CC(C)C)C3)cc1.O=CO` [Example 76, (S)-1-ethyl-3-(4-(7-isobutyl-4-(3-methylmorpholino)-5,6,7,8-tetrahydropyrido[3,4-d]pyrimidin-2-yl)phenyl)urea formate]: the IC50 in test [1] is above 10000 nM; in test [2], above 10000 nM; in test [3] it was 95 nM.
